Measured values: patent US5387409A, “Boronic acid adducts of rhenium dioxime and technetium-99m dioxime complexes containing a biochemically active group” (Bracco International B.V., priority 1992, dated 1995)

Experiments:
[1] = Cyclic voltammetry in DMF (peak potential vs. Ag/AgNO3); type: physicochemical; details: for Epc(DMF): cathodic peak potential in DMF vs. Ag/AgNO3 (Table 3); for Peak Potential (EP), Nitro-base Anodic / Peak Potential (EP), Nitro-base Cathodic: DMF, scan rate = 100 mV/sec, Ag/AgNO3 reference (Table 2)
[2] = tested on: xanthine oxidase; assay: Enzyme assay: xanthine oxidase reduction (disappearance of the nitro compound, UV/Visible 326 nm); type: biochemical
Description: The nitroimidazole boronic acids in this invention were examined in an assay using the enzyme xanthine oxidase. […] All reagents were degassed prior to mixing by passage of argon over the surface for 20 minutes. Loss of the nitro group (an indication of reduction) was monitored every 5 minutes using a UV/Visible spectrophotometer set at 326 nm. The half-lives of disappearance of the nitro compounds were determined by plotting log (concentration) mmole/ml vs time for all compounds studied.

[3] = Electrochemical peak potential (cathodic) in water vs. saturated calomel electrode; type: physicochemical; details: cathodic peak potential in water vs. saturated calomel electrode (Table 3)
[4] = Biodistribution: lung uptake of amine-containing 99mTc (BATO) complexes in rats; type: in vivo; details: I.V.
Description: Biodistribution Results for Amine-substituted Boron complexes, ^99m Tc(chloride)(dimethylglyoxime)3 B-R (wherein R is or contains an amine)
The other complexes listed were prepared using the methodology described in Example 2. Lung uptake at 5 and 60 minutes post I.V. administration of these compounds was noted.

[5] = tested on: estrogen receptor; assay: In vitro estrogen receptor binding studies, cytosolic preparations of isolated rat uteri; details: rat uteri cytosol; preparations with specific activity from 400 to 2000 Ci/mmol
[6] = hypoxanthine, pH 7.4, 0.25 μMoles nitro compound

| Molecule | Epc(DMF) [1] | half life (enzyme assay) [2, 6] | Epc(Aqueous) [3] | Peak Potential (EP), Nitro-base Anodic [1] | Peak Potential (EP), Nitro-base Cathodic [1] | further results |
| --- | --- | --- | --- | --- | --- | --- |
| O=[N+]([O-])c1cn(Cc2ccc(B(O)O)cc2)cn1 [BB4NO2, 1-(4-Nitroimidazole)-benzylboronic acid] | -1.80 V | 95 min | -0.50 V | – | – | – |
| O=[N+]([O-])c1nccn1Cc1ccc(B(O)O)cc1 [BBNO2, 1-(2-Nitroimidazoyl)benzylboronic acid] | – | 11 min | – | – | – | – |
| O=[N+]([O-])c1nccn1CCc1ccc(B(O)O)cc1 [BPhEtNO2, 4-(2-Nitroimidazolylethyl)phenyl boronic acid] | -1.53 V | 42.5 min | -0.30 V | – | – | – |
| O=[N+]([O-])c1nccn1CC=CB(O)O [BPropeneNO2, 2-Nitroimidazolyl-N1-[2-propenyl]-3-boronic acid] | -1.56 V | 24 min | -0.30 V | – | – | – |
| Cc1ncc([N+](=O)[O-])n1CCO [Metronidazole, reference compound] | -1.62 V | – | -0.46 V | -1.55 | -1.63 | half life (enzyme assay) ([2]; pH 7.4): > 1440 min |
| COCC(O)Cn1ccnc1[N+](=O)[O-] (stereo not drawn) [Misonidazole, reference compound] | -1.49 V | 45 min | -0.33 V | -1.43 | -1.51 | – |
| ^99 Tc(chlorine)(1,2-cyclohexanedione dioxime)3 1-(2-nitroimidazoyl)benzyl boron [Complex of Example 13] | – | – | – | -1.50 | -1.56 | – |
| ^99 Tc(chlorine)(dimethylglyoxime)3 -1-(2-nitroimidazoyl)benzylboron [Complex of Example 15] | – | – | – | -1.51 | -1.58 | – |
| ^99m Tc(chloride)(dimethylglyoxime)3 [4-[2-[(1-methylethyl)amino]propyl]phenyl]boron | – | – | – | – | – | % Injected Dose in Lungs, 5 min. P.I. ([4]; 5 min. post-injection): 3.25 % Injected Dose; % Injected Dose in Lungs, 60 min. P.I. ([4]; 60 min. post-injection): 2.19 % Injected Dose |
| ^99m/99 Tc(chloride)(dimethylglyoxime)3 (estradiol boron) [technetium labeled estradiol] | – | – | – | – | – | specific binding [5]: 10-30 % of the total bound activity |
